For experiment [1], the system named is p16. Kind of experiment: p16 methylation status in Jurkat T cells. The following applies: EGCG 20 μM, 7-days treatment. It counts as cell-based, human.
The subject of experiment [2] is Caco-2. The experiment in a line: Growth of Caco-2 colon cancer cells. Type of experiment: cell-based, human. The method, then:
(§1) To determine whether EGCG inhibits DHFR activity in vivo, two human cancer cell, (Caco-2 from colon cancer and Jurkat T a lymphoma cell line) were incubated with various concentrations of EGCG in a standard medium.

Experiment [3] deals with S. maltophilia strain 1. Kind of experiment: Time kill assay for bactericidal and bacteriostatic effects. It counts as cell-based, Stenotrophomonas maltophilia. The protocol:
A time kill assay was performed for strain 1. Glass tubes containing cation-adjusted Mueller-Hinton broth, with doubling antibiotic concentration were inoculated with 5×10^5 CFU/ml and were incubated at 37° C. for 24 h. Antibiotic concentrations were chosen to comprise three doubling dilutions above and two doubling dilutions below the broth dilution MIC. Inoculation of each serially diluted antibiotic tube was performed following NCCLS guidelines for broth dilution method. Viability counts of antibiotic-containing suspensions were carried out at 0, 3, 6, 12 and 24 h, by plating 10 μl aliquots of 10-fold dilutions from each tube in sterile saline onto Columbia agar supplemented with 5% of defibrinated sheep blood. The plates used to recover organisms were incubated for up to 24 h. The lower limit of sensibility of colony counts was 100 CFU/ml. Time kill assay results were analyzed by determining changes in the log10 CFU/ml compared to the counts at zero-time for the six different concentrations of EGCG. Bactericidal effect was defined at the lowest concentration that reduced the original inoculums by ≧3 log10 CFU/ml after a period of time and bacteriostatic if the inoculums was reduced by 0 to 3 log10 CFU/ml.

Experiment [4] has as its system S. maltophilia. The experiment in a line: Broth dilution MIC determination. It counts as cell-based, Stenotrophomonas maltophilia. The method, then:
Eighteen strains of cotrimoxazole susceptible S. maltophilia were collected during the last year at the Hospital Universitario Virgen de la Arrixaca (Murcia, Spain) from clinical isolates. Bacteria were frozen at −70° C. in glycerol-meat medium and inoculated onto Columbia agar (Fluka Chemie GmbH, Madrid, Spain) supplemented with 5% of defibrinated sheep blood 48 and 24 h prior to susceptibility testing.
MICs for the 18 strains were determined by the broth dilution method at a final inoculum of 5×10^5 CFU/ml, according to the guidelines recommended by the NCCLS by using cation-adjusted Mueller-Hinton broth (Fluka). After incubation at 37° C. for 24 h, the lowest concentration of the two-fold serially diluted EGCG at which no visible growth occurred was defined as its MIC.
Background: Broth dilution looks for growth in wells or tubes with falling amounts of substance.

Experiment [5] has as its target T1, bovine liver DHFR (Bos taurus, UniProt P00376).
T1 construct: from tissue; host or cells: bovine liver
T1 sequence (P00376 1-187): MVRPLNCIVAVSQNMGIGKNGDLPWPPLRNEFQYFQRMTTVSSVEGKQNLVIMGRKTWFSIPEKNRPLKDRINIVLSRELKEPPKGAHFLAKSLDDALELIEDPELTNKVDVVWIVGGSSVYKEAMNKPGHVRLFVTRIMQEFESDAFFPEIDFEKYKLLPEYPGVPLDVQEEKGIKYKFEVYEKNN
Kind of experiment: Kinetic analysis of inhibition of bovine liver DHFR. It counts as biochemical. The protocol: The activity of DHFR was determined at 25° C. by following the decrease of NADPH and DHF by absorbance measurements at 340 nm (ε=11,800 M^−1 cm^−1) by using a Perkin-Elmer Lambda-2 spectrophotometer with cuvettes of 1.0 cm light-path.
Experiments were performed at pH 7.58 and 25° C. in a buffer containing 2-(N-morpholino)ethanesulfonic acid (MES, 25 mM), sodium acetate (25 mM), tris(hydroxymethyl)aminomethane (Tris 50 mM), and NaCl (100 mM). To prevent the oxidation of catechins, the reaction mixture contained 1 mM ascorbic acid. The pH of the reaction was measured before and after of the experiment. The assays were started by the addition of enzyme. In the absence of the enzyme, the rate of change of absorbance was negligible. […]
Progress curves for the slow, tight-binding inhibition of bovine liver DHFR by EGCG were determined by continuously monitoring the disappearance of NADPH and DHF after initiation of the reaction by the addition of 3.3 nM enzyme. Reaction mixtures contained buffer, NADPH (100 μM), DHF (20 μM) and EGCG. Assuming that the concentration of free inhibitor is not substantially altered by the formation of an enzyme-NADPH-inhibitor complex, the progress curve for the inhibition in the presence of saturating NADPH is described by Eqn. (1): P=vst+(v0−vs)(1−exp(−k′t))/k′
where vs, v0 and k′ represent the steady-state velocity, initial velocity and apparent first-order rate constant, respectively.
The values of k′ at different EGCG concentrations were obtained by non-linear regression analysis of the progress curves. KI and KI* denote the respective dissociation constants for the initial and equilibrium binding of inhibitors to the enzyme-NADPH complex (FIG. 5).

Experiment [6] concerns Jurkat T. Kind of experiment: Growth of Jurkat T lymphoma cells. Type of experiment: cell-based, human. The method, then: as §1
The mark [7] stands for this setting: standard medium, read-out: IC50 of cell growth.
Where [8] appears, read: eighteen S. maltophilia isolates.

Like-named read-outs stand apart in the source and are kept apart here.

By IC50 is commonly meant the concentration that inhibits the measured activity by half. By MIC is commonly meant the smallest concentration in the dilution series that meets the test's criterion for growth inhibition. Low values mean a more susceptible organism, high ones a less susceptible organism. For orientation: MIC50 means the lowest concentration that inhibits either 50% of growth or 50% of the strains tested, depending on the study. Higher therefore signals lower susceptibility. For orientation: MIC90 means the lowest concentration that inhibits either 90% of growth or 90% of the strains tested, depending on the study. Read a high MIC90 as lower susceptibility. By Ki is commonly meant a measure of affinity in units of concentration, obtained from inhibition or displacement. Consider (−)-epigallocatechin gallate [EGCG], for which the p16 methylation pattern entry in experiment [1] is listed as “changed from methylated to unmethylated”. Besides, in experiment [2], the apoptosis entry was “induction of apoptosis”; the cell cycle effect result was “G0/G1 phase arrest”; the “effects in HT medium and in the presence of folinic acid or thymine” value is “highly attenuated”. Moreover, in experiment [2] (setting [7]), the 50% inhibitory concentration (IC50) is 30 µM. Besides, the regrowth entry in experiment [3] (64 μg/ml, after 12 h incubation) is recorded as “Regrowth was observed”. For the same substance, in experiment [3] (at 12 h), the “concentration with bactericidal effect” value was 4 times the MIC and the “concentration with bacteriostatic effect” value is 2 times the MIC. For the same substance, the MIC in experiment [4] (S. maltophilia strain 1) came out at 64 µg/mL. In experiment [4] (setting [8]), the MIC50 turned out to be 32 µg/mL, the MIC90 was determined as 64 µg/mL and the “MICs (range)” value lay within 4 to 256 µg/mL. Moreover, in experiment [5], the k5 was determined as 0.13 min⁻¹, the k5/k6 was determined as 32.5 ratio, the k6 was determined as 0.004 min⁻¹ and the type of inhibition result is on record as “slow tight-binding inhibitor”. The Ki in experiment [5] (equilibrium binding to enzyme-NADPH complex, read-out: KI*) is 0.0029 µM. Moreover, in experiment [5] (initial binding to enzyme-NADPH complex, pH 7.58, 25° C., read-out: KI), the Ki stood at 0.109 µM. In experiment [6], the apoptosis result is reported as “induction of apoptosis”; the cell cycle effect result is listed as “G0/G1 phase arrest”; the “effects in HT medium and in the presence of folinic acid or thymine” value is recorded as “highly attenuated”. The IC50 in experiment [6] (setting [7]) turned out to be 10 µM.
